One data set is described as follows: CHI Log D procedure. The data set is classed as physicochemical. The following applies: for CHI Log D: pH 7.4; for chromatographic logD: pH 7.4, CHI Log D.
A short description of a further data set: Solubility in PBS. The data set is classed as physicochemical. The procedure, abridged: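 Solubility is derived from HPLC peak areas: the ratio of the PBS supernatant peak to a 50 μM DMSO peptide peak, times 50 uM.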
Data set [1] addresses T1, full-length beta-Catenin (Uniprot ID P35222) (Homo sapiens, UniProt P35222).
T1 construct: 10 nM full-length beta-Catenin (Uniprot ID P35222)
T1 sequence (P35222 1-781): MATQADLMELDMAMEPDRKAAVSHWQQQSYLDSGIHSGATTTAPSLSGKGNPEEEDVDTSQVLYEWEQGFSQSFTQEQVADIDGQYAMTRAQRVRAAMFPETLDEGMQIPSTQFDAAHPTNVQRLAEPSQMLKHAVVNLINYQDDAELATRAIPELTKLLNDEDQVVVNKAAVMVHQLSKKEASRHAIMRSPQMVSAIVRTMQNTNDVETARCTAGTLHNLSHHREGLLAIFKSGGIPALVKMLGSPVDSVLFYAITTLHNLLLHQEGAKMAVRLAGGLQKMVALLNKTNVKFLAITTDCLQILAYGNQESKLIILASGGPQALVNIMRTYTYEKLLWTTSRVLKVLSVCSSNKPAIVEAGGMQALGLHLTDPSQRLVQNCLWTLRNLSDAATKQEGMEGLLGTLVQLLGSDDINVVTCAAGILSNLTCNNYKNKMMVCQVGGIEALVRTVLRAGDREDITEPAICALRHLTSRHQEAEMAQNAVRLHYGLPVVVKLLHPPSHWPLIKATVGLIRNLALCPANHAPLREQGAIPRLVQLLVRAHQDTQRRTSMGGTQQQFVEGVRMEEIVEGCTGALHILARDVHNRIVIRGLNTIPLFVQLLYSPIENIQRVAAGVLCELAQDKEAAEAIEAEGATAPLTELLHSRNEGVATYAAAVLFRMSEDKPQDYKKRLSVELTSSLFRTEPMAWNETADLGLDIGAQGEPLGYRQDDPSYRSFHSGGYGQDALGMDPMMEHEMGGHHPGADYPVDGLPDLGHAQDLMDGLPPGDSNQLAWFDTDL
In words: Fluorescence polarization IC50 (beta-catenin / 5FAM-TCF4 10-53 competition). The following applies: fluorescence polarization; read-out: beta-Catenin FP IC50. The format is binding. In general terms: Polarisation of emitted light reports the rotation of a fluorescent probe.

The target in data set [2] is T2, beta-catenin/TCF4 engagement (Homo sapiens, UniProt P35222).
T2 construct: expressed in transfected cells; host or cells: HEK293
T2 sequence (P35222 1-781): T1 sequence (P35222 1-781)
Description: Nano-BRET target engagement assay (B-cat-Halo & TCF4-Luc in HEK293 cells). The data set is classed as cell-based. The settings on record: absolute IC50; read-out: NanoBRET Abs IC50.

The source of these data is US20240116985A1, “STAPLED PEPTIDES AND METHODS THEREOF” (priority 2020, published 2024).

≈ marks a conversion by molar mass, not a printed value. Like-named read-outs stand apart in the source and are kept apart here.

Consider `CC(=O)N1CCC[C@]12CC=CCCCC1(CCCC=CCCCCCC[C@@](C)(C(=O)N[C@@H](Cc3ccccc3)C(=O)N[C@@H](Cc3c[nH]c4ccccc34)C(=O)N[C@@H](CCC(N)=O)C(N)=O)NC(=O)[C@H](C(C)C)NC(=O)C(Cc3cncn3C)NC(=O)[C@H](C)NC(=O)[C@H](C)NC(=O)[C@H](CC(=O)O)NC(=O)[C@H](CC(=O)O)NC1=O)NC(=O)[C@H](C)NC(=O)[C@H](CC(=O)O)NC2=O` (single isomer, unassigned) [I-332, Ac-PL3-Asp-Ala-B5-Asp-Asp-Ala-Ala-3meH-Val-S8-Phe-Trp-Gln-NH2], for which the “CHI Log D” value in the data set “CHI Log D procedure” is on record as 2.038. Further, the Solubility (commonly the concentration that dissolves in the medium under given conditions) in “Solubility in PBS” (15 min) is 40 µM (≈ 71.4 µg/mL).
With `CC(=O)N[C@@H](Cc1ccccc1)C(=O)N[C@@H](CC(=O)O)C(=O)N[C@@H](C)C(=O)N[C@]1(C)CCCCCCC=CCOC(=O)N2CC[C@@](C(=O)N[C@@H](Cc3ccccc3)C(=O)N[C@@H](Cc3c[nH]c4ccccc34)C(=O)N[C@@H](CCC(N)=O)C(N)=O)(C2)NC(=O)[C@H](C(C)C)NC(=O)[C@H](Cc2ccccc2)NC(=O)[C@H](C)NC(=O)[C@H](C)NC(=O)[C@H](Cc2ccc3ccccc3c2)NC(=O)[C@H](CC(=O)O)NC1=O` [I-116, Ac-Phe-Asp-Ala-R8-Asp-2NapA-Ala-Ala-Phe-Val-PyrS-Phe-Trp-Gln-NH2], in “CHI Log D procedure”, the “CHI Log D” value is on record as 2.134. Also, the “Solubility” value in “Solubility in PBS” is 11 µM (≈ 20.9 µg/mL).
In the case of `CC(=O)N1CCC[C@]12CC=CCCCC1(CCCC=CCCCCCC[C@@](C)(C(=O)N[C@@H](Cc3ccccc3)C(=O)N[C@@H](Cc3c[nH]c4ccccc34)C(=O)N[C@@H](CCC(N)=O)C(N)=O)NC(=O)[C@H](C(C)C)NC(=O)[C@H](Cc3ccccc3)NC(=O)[C@H](C)NC(=O)[C@H](C)NC(=O)[C@H](Cc3cccc(F)c3)NC(=O)[C@H](CC(=O)O)NC1=O)NC(=O)[C@H](C)NC(=O)[C@H](CC(=O)O)NC2=O` (stereo partly drawn) [I-257, Ac-PL3-Asp-Ala-B5-Asp-3FF-Ala-Ala-Phe-Val-S8-Phe-Trp-Gln-NH2], the chromatographic logD – broadly, lipophilicity estimated from chromatographic retention – in “CHI Log D procedure” was found to be 2.91. Besides, in “Solubility in PBS”, the “Solubility” value turned out to be 10 µM (≈ 18.3 µg/mL).
For the molecule `CC(=O)N1CCC[C@]12CC=CCCCC1(CCCC=CCCCCCC[C@@](C)(C(=O)N[C@@H](Cc3cccc4ccccc34)C(=O)N[C@@H](Cc3c[nH]c4ccccc34)C(=O)N[C@@H](CCC(N)=O)C(N)=O)NC(=O)[C@H](C(C)C)NC(=O)[C@H](Cc3ccccc3)NC(=O)[C@H](C)NC(=O)[C@H](C)NC(=O)[C@H](CC(=O)O)NC(=O)[C@H](CC(=O)O)NC1=O)NC(=O)[C@H](C)NC(=O)[C@H](CC(=O)O)NC2=O` (stereo partly drawn) [I-275, Ac-PL3-Asp-Ala-B5-Asp-Asp-Ala-Ala-Phe-Val-S8-1NapA-Trp-Gln-NH2], the “CHI Log D” value in the data set “CHI Log D procedure” was 2.191. Further, the “Solubility” value in “Solubility in PBS” is 44 µM (≈ 80.6 µg/mL).
As to `CC(=O)N1CCC[C@]12CC=CCCCC1(CCCC=CCCCCCC[C@@](C)(C(=O)N[C@@H](CC(N)=O)C(=O)N[C@@H](Cc3c[nH]c4ccccc34)C(=O)N[C@@H](CCC(N)=O)C(N)=O)NC(=O)[C@H](C(C)C)NC(=O)[C@H](Cc3ccccc3)NC(=O)[C@H](C)NC(=O)[C@H](C)NC(=O)[C@H](CC(=O)O)NC(=O)[C@H](CC(=O)O)NC1=O)NC(=O)[C@H](C)NC(=O)[C@H](CC(=O)O)NC2=O` (stereo partly drawn) [I-284, Ac-PL3-Asp-Ala-B5-Asp-Asp-Ala-Ala-Phe-Val-S8-Asn-Trp-Gln-NH2], the chromatographic logD in “CHI Log D procedure” was found to be 1.52. In addition, the concentration in solution in “Solubility in PBS” (Solubility (uM)) (Solubility) came to 40 µM (≈ 69.9 µg/mL).
For `CC(=O)N1CCC[C@]12CC=CCCCC1(CCCC=CCCCOC(=O)N3CC[C@@](C(=O)N[C@@H](Cc4ccccc4Cl)C(=O)N[C@@H](Cc4csc5ccccc45)C(=O)N[C@@H](CCC(N)=O)C(N)=O)(C3)NC(=O)[C@H](Cc3ccccc3)NC(=O)[C@H](Cc3ccccc3)NC(=O)[C@H](C)NC(=O)[C@H](C)NC(=O)[C@H](CC(=O)O)NC(=O)[C@H](CC(=O)O)NC1=O)NC(=O)[C@H](CC(C)(C)C)NC(=O)[C@H](CC(=O)O)NC2=O` (stereo partly drawn) [I-1366, Ac-PL3-Asp-Npg-B5-Asp-Asp-Ala-Ala-Phe-Phe-PyrS2-2C1F-BztA-Gln-NH2], the IC50 (usually the concentration needed to halve the response being measured) in data set [1] is 0.007 µM; in data set [2], 7.5 µM. In addition, the “Solubility” value in “Solubility in PBS” was determined as 10 µM (≈ 19.8 µg/mL).
The corresponding values for `CC(=O)N1CCC[C@]12CC=CCCCC1(CCCC=CCCCOC(=O)N3CC[C@@](C(=O)N[C@@H](Cc4ccccc4Cl)C(=O)N[C@@H](Cc4csc5ccccc45)C(=O)N[C@@H](CCC(N)=O)C(N)=O)(C3)NC(=O)[C@H](Cc3ccccc3C(F)(F)F)NC(=O)[C@H](Cc3ccccc3)NC(=O)[C@H](C)NC(=O)[C@H](C)NC(=O)[C@H](CC(=O)O)NC(=O)[C@H](CC(=O)O)NC1=O)NC(=O)[C@H](CC(C)(C)C)NC(=O)[C@H](CC(=O)O)NC2=O` (stereo partly drawn) [I-1367, Ac-PL3-Asp-Npg-B5-Asp-Asp-Ala-Ala-Phe-2F3MeF-PyrS2-2C1F-BztA-Gln-NH2] are 0.031 µM, 7.8 µM and 10 µM (≈ 20.5 µg/mL).
For the molecule `CC(=O)N1CCC[C@]12CC=CCCCC1(CCCC=CCCCOC(=O)N3CC[C@@](C(=O)N[C@@H](Cc4ccccc4Cl)C(=O)N[C@@H](Cc4csc5ccccc45)C(=O)N[C@@H](CCC(N)=O)C(N)=O)(C3)NC(=O)[C@H](Cc3cccc(C(F)(F)F)c3)NC(=O)[C@H](Cc3ccccc3)NC(=O)[C@H](C)NC(=O)[C@H](C)NC(=O)[C@H](CC(=O)O)NC(=O)[C@H](CC(=O)O)NC1=O)NC(=O)[C@H](CC(C)(C)C)NC(=O)[C@H](CC(=O)O)NC2=O` (stereo partly drawn) [I-1368, Ac-PL3-Asp-Npg-B5-Asp-Asp-Ala-Ala-Phe-3F3MeF-PyrS2-2C1F-BztA-Gln-NH2], the results for the IC50 in data set [1] and in data set [2] were 0.044 µM and 14.2 µM, respectively. In the data set “Solubility in PBS”, the “Solubility” value was found to be 10 µM (≈ 20.5 µg/mL).
The corresponding values for `CC(=O)N1CCC[C@]12CC=CCCCC1(CCCC=CCCCOC(=O)N3CC[C@@](C(=O)N[C@@H](Cc4ccccc4Cl)C(=O)N[C@@H](Cc4csc5ccccc45)C(=O)N[C@@H](CCC(N)=O)C(N)=O)(C3)NC(=O)[C@H](Cc3ccc(C(F)(F)F)cc3)NC(=O)[C@H](Cc3ccccc3)NC(=O)[C@H](C)NC(=O)[C@H](C)NC(=O)[C@H](CC(=O)O)NC(=O)[C@H](CC(=O)O)NC1=O)NC(=O)[C@H](CC(C)(C)C)NC(=O)[C@H](CC(=O)O)NC2=O` (stereo partly drawn) [I-1369, Ac-PL3-Asp-Npg-B5-Asp-Asp-Ala-Ala-Phe-4F3MeF-PyrS2-2C1F-BztA-Gln-NH2] are 0.029 µM, 9.9 µM and 10 µM (≈ 20.5 µg/mL).
Turning to `CC(=O)N1CCC[C@]12CC=CCCCC1(CCCC=CCCCOC(=O)N3CC[C@@](C(=O)N[C@@H](Cc4ccsc4)C(=O)N[C@@H](Cc4csc5ccccc45)C(=O)N[C@H](CO)[C@@H](C)O)(C3)NC(=O)[C@H](Cc3ccccc3C(F)(F)F)NC(=O)[C@H](Cc3ccccc3)NC(=O)[C@H](C)NC(=O)[C@H](C)NC(=O)[C@H](CC(=O)O)NC(=O)[C@H](CC(=O)O)NC1=O)NC(=O)[C@H](CC(C)(C)C)NC(=O)[C@H](CC(=O)O)NC2=O` (stereo partly drawn) [I-1370, Ac-PL3-Asp-Npg-B5-Asp-Asp-Ala-Ala-Phe-2F3MeF-PyrS2-3Thi-BztA-Thro1], the IC50 amounted to 0.018 µM in data set [1] and 10 µM in data set [2]. In addition, the “Solubility” value in “Solubility in PBS” was 10 µM (≈ 19.8 µg/mL).
Consider `CC(=O)N1CCC[C@]12CC=CCCCC1(CCCC=CCCCOC(=O)N3CC[C@@](C(=O)N[C@@H](Cc4ccsc4)C(=O)N[C@@H](Cc4csc5ccccc45)C(=O)N[C@H](CO)[C@@H](C)O)(C3)NC(=O)[C@H](Cc3cccc(C(F)(F)F)c3)NC(=O)[C@H](Cc3ccccc3)NC(=O)[C@H](C)NC(=O)[C@H](C)NC(=O)[C@H](CC(=O)O)NC(=O)[C@H](CC(=O)O)NC1=O)NC(=O)[C@H](CC(C)(C)C)NC(=O)[C@H](CC(=O)O)NC2=O` (stereo partly drawn) [I-1371, Ac-PL3-Asp-Npg-B5-Asp-Asp-Ala-Ala-Phe-3F3MeF-PyrS2-3Thi-BztA-Thro1], for which the IC50 in data set [1] turned out to be 0.022 µM; in data set [2], 10.9 µM. In addition, the “Solubility” value in the data set “Solubility in PBS” was determined as 10 µM (≈ 19.8 µg/mL).
For `CC(=O)N1CCC[C@]12CC=CCCCC1(CCCC=CCCCOC(=O)N3CC[C@@](C(=O)N[C@@H](Cc4ccsc4)C(=O)N[C@@H](Cc4csc5ccccc45)C(=O)N[C@H](CO)[C@@H](C)O)(C3)NC(=O)[C@H](Cc3ccc(C(F)(F)F)cc3)NC(=O)[C@H](Cc3ccccc3)NC(=O)[C@H](C)NC(=O)[C@H](C)NC(=O)[C@H](CC(=O)O)NC(=O)[C@H](CC(=O)O)NC1=O)NC(=O)[C@H](CC(C)(C)C)NC(=O)[C@H](CC(=O)O)NC2=O` (stereo partly drawn) [I-1372, Ac-PL3-Asp-Npg-B5-Asp-Asp-Ala-Ala-Phe-4F3MeF-PyrS2-3Thi-BztA-Thro1] the same measures were 0.029 µM, 10.2 µM and 10 µM (≈ 19.8 µg/mL).
